“Also recorded” adds a separate entry of the source.
Assays:
IL-6 = assay: Cytokine ELISA, LPS-stimulated peritoneal macrophages (IL-6); format: cell-based, mouse; conditions: LPS 100 ng/mL 6 hours, pre-treatment 1.5 μM
Excerpt: (§1) This was exemplified in the current study by the ability of SFN-CYS to inhibit lipopolysaccharide (LPS)-induced peritoneal macrophages and bone marrow-derived macrophages to produce tumor necrosis factor-α (TNF-α) and interlukin-6 (IL-6). TNF-α and IL-6 are two of the major inflammatory mediators that contribute to the pathogenesis of low-grade inflammation; a phenomenon which is commonly associated with the diabetic state. […] Pre-treatment with SFN-Cys inhibited the expression of LPS-induced TNF-α and IL-6 protein at a therapeutic dose of 1.5 μM (FIGS. 1A and 1B).
(§2) Thioglycollate-elicited mouse peritoneal macrophages were prepared from C57BL (8-10 weeks old) and cultured in RPMI 1640 with 10% (v/v) FCS Bone marrow-derived macrophages were generated in RPMI medium containing M-CSF (10 ng/mL) according to previously published procedure. For cytokine ELISA assay, cells were seeded at 5×10^5 in 12-well plates, whereas for mRNA expression, the cells were seeded at […]. LPS and used at a dose of 100 ng/mL. Similarly. SFN-Cys was used at a concentration of 1.5 umol/L.
(§3) For cytokine ELISA, supernatants from cultured macrophages were collected in response to treatment with SFN and SFN-Cys for 6 h. The total TNF-α and TL-6 were measured by enzyme-linked immunosorbent assay (ELISA) using kits (R&D system, USA) according to the manufacturer's protocols.

TNF-α [1] = assay: Real-time PCR, LPS-induced TNF-α mRNA in peritoneal macrophages; format: cell-based, mouse; conditions: LPS 100 ng/mL, 1.5 umol/L, RT-PCR
Method: Additional tests were conducted to determine whether SFN-Cys also suppresses TNF-α and IL-6 expression at the mRNA level.
as §2
Total RNA from cells or frozen sponge implants was extracted using the Trizol reagent (Invitrogen), and the RNA integrity was verified by agarose gel electrophoresis. Approximately 1 μg of RNA was reverse transcribed (Superscript II Reverse Transcriptase Kit, Invitrogen) and amplified using the TaqMan Assay on Demand (Applied Biosystems) in a 25 μL reaction volume containing two unlabeled primers, a 6-carboxyfluorescien-labeled TaqMan MGB probe and the master mix. The amplified sequences were assessed using the ABI 7500 Prism Sequence Detection system machine. The results were expressed as mRNA levels normalized to 18S or GAPDH in each sample.

TNF-α [2] = assay: Cytokine ELISA, LPS-stimulated peritoneal macrophages (TNF-α); format: cell-based, mouse
Excerpt: as §1, §2, §3

Nrf2 = Nrf2 activity (NQO1-ARE luciferase) in fibroblasts; format: cell-based, rat
Method: To better characterize how SFN-Cys impacts cellular antioxidant levels, the ability of SFN-Cys to regulate the transcription factor nuclear factor erythroid 2-related factor 2 (Nrf2) was assessed, which is a master regulator of the antioxidative stress response that induces the expression of antioxidant proteins such as heme oxygenase (HO) and NAD(P)H dehydrogenase (quinine; NQO1) and key enzymes in the glutathione system. In this context, Nrf2 transcriptional activity was first measured using a vector encoding luciferase driven by the NQO1 promoter. […] Administration of SNF-Cyst at the above indicated concentration (1.5 μM, the lowest effective concentration) ameliorated diabetes-induced suppression of the Nrf2 activity and Nrf2-target genes including HO and NQO1 (FIG. 2A-D).
CF and DF were transfected with the antioxidative stress response element ARE-luciferase and pRenilla vectors using lipofectamine 2000 (Invitogen, USA). In this context, cells were plated and transfected in 12-well plates. Following treatment with SFN-Cys, cells were lysed and firefly and Renilla luciferase activity was determined using Dual luciferase assay (Promega, USA).

endothelial nitric oxide = assay: Endothelial nitric oxide activity and expression in corpus cavernosum; format: in vivo
Excerpt: (§4) Therapeutic rational was considered for SFN-Cys effectiveness in the following pathological conditions: Sarcopenia-SFN-Cys increased muscle weight in diabetic mice, see FIGS. 4A and 4B; Cardiac fibrosis-SFN-Cys inhibits transforming growth factor beta (TGF-β) expression, see FIG. 4C; Erectile dysfunction-SFN-Cys increased endothelial nitric oxide activity and expression in corpus cavernosum.

[3] = Muscle weight in diabetic mice (sarcopenia); format: in vivo
Excerpt: as §4

[4] = Toxicity assessment of chronically administered SFN-Cys (body weight, behavior); format: in vivo, mouse; conditions: mice, 21 days
Method: (§5) Testing the pharmacodynamic and toxicodynamic properties of SFN-Cys dictated the mixing SFN-Cys with a powdered diet. The estimated dose delivered by this diet was 1.5-2.5 μmol/mouse (n=4). The SFN-Cys diet was stored at 4° C. and the feeders were refilled daily for the duration of the study (21 days). Corresponding animals received food without the drug.
To strengthen this conclusion, extensive measurements were conducted on plasma levels of key parameters of kidney and liver toxicities in addition to the lipid and carbohydrate profiles.
(§6) For dietary treatment with SFN-Cys, the SFN-Cys was mixed with a powdered diet (7.5 mg of SFN-Cys per kg of food). The estimated dose delivered by this diet was about 1.0-1.5 mg/kg. The diet was stored at 4° C. and the feeders were refilled daily. Control animals received diet alone. Body weights were recorded twice a week and at the termination of the study, blood was drawn in EDTA-containing tubes, plasma was collected by centrifugation and stored at −80° C. until analysis.

NQO1 = assay: Tissue mRNA expression of NQO1 after SFN-Cys diet; format: in vivo; conditions: heart, kidney, liver and skin; SFN-Cys diet 1.5-2.5 μmol/mouse, 21 days
Method: as §5, §6
Total RNA from cells or frozen sponge implants was extracted using the Trizol reagent (Invitrogen), and the RNA integrity was verified by agarose gel electrophoresis. […] The amplified sequences were assessed using the ABI 7500 Prism Sequence Detection system machine. The results were expressed as mRNA levels normalized to 18S or GAPDH in each sample.

## C[S+]([O-])CCCCNC(=S)SCC(N)C(=O)O (centres unmarked) [SFN-Cys, Sulforaphane-Cysteine]
IL-6
  expression of LPS-induced IL-6 protein: inhibited
TNF-α [1]
  LPS-induced TNF-α mRNA up-regulation: significantly inhibited
TNF-α [2]; LPS-stimulated macrophages, mouse model of type 2 diabetes
  anti-inflammatory activity (overall, SFN-Cys compared with SFN): exhibited anti-inflammatory and antioxidant activities; also recorded: more potent than SFN
TNF-α [2]; peritoneal macrophages, LPS 100 ng/mL 6 hours, pre-treatment 1.5 μM, ELISA
  expression of LPS-induced TNF-α protein: inhibited
Nrf2; DF and CF-GP, 1.5 μM
  Nrf2 transcriptional activity (NQO1 promoter luciferase): ameliorated
Nrf2; fibroblasts, Nrf2 activity and Nrf2-target genes
  lowest effective concentration: 1.5 µM
Endothelial nitric oxide
  endothelial nitric oxide activity and expression: increased
[3]
  muscle weight: increased
[4]; SFN-Cys diet, in g (unit assumed)
  body weight: 22.7±3.2
[4]; chronic SFN-Cys diet
  signs of adverse effect (body weight and behavior): no obvious signs of adverse effect
NQO1
  mRNA expression of NQO1 relative to control: about 3 folds

From US12251366B1, “Sulforaphane-cysteine for wound healing in diabetic subjects” (KUWAIT UNIVERSITY, priority 2024, dated 2025)
